Assay results from US12295973B2 (Fred Hutchinson Cancer Center, priority 2017, dated 2025).
Where a SMILES comes first, the peptide text is derived from it. [ ]: non-standard residue; d: D form. The star is where a group is joined. dPhe(4-NHCONH2) = NC(=O)Nc1ccc(C[C@@H](N)C(=O)O)cc1; Dihydroorotyl(S) = O=C1C[C@@H](C(=O)*)NC(=O)N1; dPhe(4-Cl) = N[C@H](Cc1ccc(Cl)cc1)C(=O)O; Phe(4-NH2) = Nc1ccc(C[C@H](N)C(=O)O)cc1; d2Nal = N[C@H](Cc1ccc2ccccc2c1)C(=O)O; Lys(iPr) = CC(C)NCCCC[C@H](N)C(=O)O; d3Pal = N[C@H](Cc1cccnc1)C(=O)O

How the values were obtained:
Assay type in all cases: in vivo, mouse
LT-HSCs [1] = test: Gene expression in LT-HSCs purified after 300cGy irradiation
Description: To gain some insights in to the molecular changes mediated by LHRH-Ant treatment on HSCs LT-HSCs were purified after 300cGy irradiation and expression of key genes associated with quiescence, proliferation, DNA damage response and apoptosis of HSCs was assessed. […] Importantly, both Bcl-2 and Mcl-1 have been implicated in regulating HSC quiescence and survival respectively^45,46.
Real time PCR: Reverse transcription-PCR was performed with QuantiTect reverse transcription kit (QIAGEN). For real-time PCR, specific primer and probe sets were obtained from Applied Biosystems as follows: β-actin (Mm01205647_g1); HPRT (Mm00446968_m1); AR (Mm00442688_m1); FSHR (Mm00442819_m1); LHCGR (Mm00442931_m1). PCR was done on ABI 7500 (Applied Biosystems) or Step-One Plus (Applied Biosystems) with TaqMan Universal PCR Master Mix (Applied Biosystems). Relative amounts of mRNA were calculated by the Ct method.
Statistics: Bars and error bars represent the mean+SEM for the various groups. For most experiments, nonparametric testing was performed if normal distribution could not be assumed. All tests performed are two sided. Statistical analysis between two groups was performed with the nonparametric, unpaired Mann-Whitney U test. Tests performed are two sided, except for gene category analysis. Differential expression of gene categories was computed using Fisher's method and the input p-value for each individual gene from a category is computed from a one sided test. Survival data were analyzed with the Mantel-Cox log-rank test. Parametric t test was used for FIG. 6H right panel. The experiments were not randomized and the investigators were not blinded to the group allocation during the experiments or when assessing the outcomes. To ensure adequate power for statistical analysis at least five samples per group were tested. In general variation within groups and between experiments was low, however to take into account inter-experimental variation all experiments were performed at least twice. To account for intra-experimental variation, particularly for in vitro studies, several wells per conditions were assessed with primary sample material coming from at least two different mice. No samples or animals were excluded from the analysis except for mouse peripheral blood analysis where outliers were detected prior to the analysis with two-sided Grubbs' test for outliers (GraphPad). All statistics were calculated and display graphs generated using GraphPad 6.

LT-HSCs [2] = test: Cell apoptosis by AnnexinV/DAPI staining after radiation exposure; settings: vs vehicle
From the text: To further validate this hypothesis, two additional models were used to force HSCs out of their quiescence phase, Poly I:C and sub-lethal dose of total body irradiation (SL-TBI)^35,42,43. To eliminate any potential effects of downstream sex steroids on HSCs, all cohorts of mice in these studies had been surgically castrated.

[3] = Hormone levels (testosterone, LH, FSH) after L-TBI
[4] = system: committed hematopoietic progenitor cells; test: Colony-forming unit activity of BM from L-TBI mice; settings: day 7 after L-TBI
Description: To investigate the specific regenerative effects mediated by LHRH-Ant treatment on the hematopoietic stem and progenitor cell (HSPC) compartment, BM were analyzed at several time points after L-TBI. […] To determine hematopoietic functional potential, colony-forming unit activity was next quantified to determine the effects of LHRH-Ant on the recovery of committed hematopoietic progenitor cells. […] Consistent with these functional findings, on day 14 after L-TBI, expansion of LSKs as well as their downstream progenitors in mice given LHRH-Ant were found (FIGS. 2F, 2G). […] However, given the changes in HSC phenotype after radiation, the standard competitive repopulation functional assay was adapted to evaluate the presence and relative quantity of functional HSCs after L-TBI. […]
Colony-Forming Cell (CFC) and Cobblestone Areas Forming Cell (CAFC): Assays were performed as previously described with a minor modifications^50. […] Colonies were scored after 10 days of incubation at 37° C. and 5% CO2. […] After 3 weeks of co-culture, CAFCs were scored as phase-dark hematopoietic clones of at least 5 cells beneath the stromal layer using an inverted microscope.

CC(=O)N[C@H](Cc1ccc2ccccc2c1)C(=O)N[C@H](Cc1ccc(Cl)cc1)C(=O)N[C@H](Cc1cccnc1)C(=O)N[C@@H](CO)C(=O)N[C@@H](Cc1ccc(NC(=O)[C@@H]2CC(=O)NC(=O)N2)cc1)C(=O)N[C@H](Cc1ccc(NC(N)=O)cc1)C(=O)N[C@@H](CC(C)C)C(=O)N[C@@H](CCCCNC(C)C)C(=O)N1CCC[C@H]1C(=O)N[C@H](C)C(N)=O [LHRH-Ant, Degarelix] (Ac-[d2Nal][dPhe(4-Cl)][d3Pal]S[Phe(4-NH2)](Dihydroorotyl(S))[dPhe(4-NHCONH2)]L[Lys(iPr)]P[dA]-NH2)
expression level of Cdknla (p21) (LT-HSCs [1]): significantly higher levels | expression level of Hest (LT-HSCs [1]): significantly higher levels | expression of anti-apoptotic gene Bcl2 (LT-HSCs [1]): significantly increased | expression of anti-apoptotic gene Mcl1 (LT-HSCs [1]): significantly increased | expression of genes related to apoptosis (LT-HSCs [1]; p=0.004): significant overexpression | expression of genes related to quiescence (LT-HSCs [1]; p=0.02): significant overexpression | proportion of live LT-HSCs (LT-HSCs [2]): significantly increased the proportion of live LT-HSCs | level of testosterone ([3]; after radiation): did not significantly lower the level of testosterone | level of FSH ([3]; irradiated mice): dramatically decreased | level of LH ([3]; irradiated mice): dramatically decreased | BFU-E colonies [4]: significant increase | CFU-GM colonies [4]: significant increase
